# Data from patent publication US8906925B2, “Pyrido[4,3-B]indoles containing rigid moieties” (Medivation Technologies, Inc., priority 2008, dated 2014).
# Where “and” joins values, the source holds several entries; their conditions need not be identical. Equal entries are not always repeated. Where two headings read alike, the source gives them in different places.
# Assays:
# [1] = target: T1, human recombinant serotonin (5-Hydroxytryptamine) 5-HT6 receptor (Homo sapiens, UniProt P50406); assay: Serotonin 5-HT6 radioligand binding ([3H]LSD); details: for inhibition at 1 µM / inhibition at 0.1 µM: read-out: Inhibition of ligand binding, Serotonin 5-HT6 (percent inhibition of specific binding); for inhibition at 0.1 µM: compound at 0.1 μM
# T1 construct: expressed in transfected cells; host or cells: human HeLa cells
# T1 sequence (P50406 whole entry): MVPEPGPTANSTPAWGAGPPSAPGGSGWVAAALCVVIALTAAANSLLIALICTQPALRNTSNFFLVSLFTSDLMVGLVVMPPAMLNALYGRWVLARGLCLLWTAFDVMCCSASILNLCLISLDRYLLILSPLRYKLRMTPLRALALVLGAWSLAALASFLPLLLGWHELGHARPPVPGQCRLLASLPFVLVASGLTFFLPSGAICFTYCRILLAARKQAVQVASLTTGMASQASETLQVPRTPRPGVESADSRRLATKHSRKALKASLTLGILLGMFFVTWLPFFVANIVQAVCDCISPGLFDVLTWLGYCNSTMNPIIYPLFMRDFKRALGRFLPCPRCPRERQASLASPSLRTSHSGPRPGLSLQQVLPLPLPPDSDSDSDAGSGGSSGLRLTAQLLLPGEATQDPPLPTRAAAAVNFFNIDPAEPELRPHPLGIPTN
# Procedure: Compounds of the invention were incubated with 1.5 nM [3H]Lysergic acid diethylamide (LSD) for 120 min. at 37° C. […] Receptor proteins were filtered and washed, the filters were then counted to determine [3H]LSD specifically bound. Compounds were screened at 1 μM or lower, using 1% DMSO as vehicle. Biochemical assay results are presented as the percent inhibition of specific binding in Table 10.
# [2] = target: T2, human recombinant adrenergic α2B receptor (Homo sapiens, UniProt P18089); assay: Adrenergic α2B radioligand binding ([3H]Rauwolscine); details: compound at 1 μM
# T2 construct: expressed in transfected cells; host or cells: Chinese hamster ovary (CHO-K1) cells
# T2 sequence (P18089 1-450): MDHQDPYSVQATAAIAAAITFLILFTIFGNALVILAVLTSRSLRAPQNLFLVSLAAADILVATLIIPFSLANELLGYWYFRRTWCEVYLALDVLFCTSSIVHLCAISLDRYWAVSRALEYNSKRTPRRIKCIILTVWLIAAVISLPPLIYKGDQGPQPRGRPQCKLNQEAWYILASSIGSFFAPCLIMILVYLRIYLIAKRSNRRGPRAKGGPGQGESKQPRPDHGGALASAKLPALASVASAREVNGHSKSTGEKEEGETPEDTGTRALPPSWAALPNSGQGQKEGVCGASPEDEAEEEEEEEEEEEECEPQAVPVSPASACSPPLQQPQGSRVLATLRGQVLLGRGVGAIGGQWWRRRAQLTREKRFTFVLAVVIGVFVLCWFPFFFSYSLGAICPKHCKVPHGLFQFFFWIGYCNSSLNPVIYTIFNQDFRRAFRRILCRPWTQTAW
# Procedure: To evaluate in radioligand binding assays the activity of compounds of the invention, human recombinant adrenergic α2B receptor expressed in Chinese hamster ovary (CHO-K1) cells (Uhlen S et al. Eur J Pharmacol. 343(1):93, 1998) in a modified Tris-HCl buffer (50 mM Tris-HCl, pH 7.4, 12.5 mM MgCl2, 1 mM EDTA, 0.2% BSA) was used. Compounds of the invention were incubated with 2.5 nM [^3H]Rauwolscine for 60 min. at 25° C. Non-specific binding was estimated in the presence of 10 μM Prozosin. Receptor proteins were filtered and washed, the filters were then counted to determine [^3H]Rauwolscine specifically bound. Compounds were screened at 1 μM or lower, using 1% DMSO as vehicle. Biochemical assay results are presented as the percent inhibition of specific binding in Table 9.
# [3] = target: T3, human recombinant histamine H2 receptor (Homo sapiens, UniProt P25021); assay: Histamine H2 radioligand binding ([125I]Aminopotentidine); details: read-out: Histamine Binding (1 μM) H2, percent inhibition of specific binding, 1 μM
# T3 construct: expressed in transfected cells; host or cells: Chinese hamster ovary (CHO) K1 cells
# T3 sequence (P25021 whole entry): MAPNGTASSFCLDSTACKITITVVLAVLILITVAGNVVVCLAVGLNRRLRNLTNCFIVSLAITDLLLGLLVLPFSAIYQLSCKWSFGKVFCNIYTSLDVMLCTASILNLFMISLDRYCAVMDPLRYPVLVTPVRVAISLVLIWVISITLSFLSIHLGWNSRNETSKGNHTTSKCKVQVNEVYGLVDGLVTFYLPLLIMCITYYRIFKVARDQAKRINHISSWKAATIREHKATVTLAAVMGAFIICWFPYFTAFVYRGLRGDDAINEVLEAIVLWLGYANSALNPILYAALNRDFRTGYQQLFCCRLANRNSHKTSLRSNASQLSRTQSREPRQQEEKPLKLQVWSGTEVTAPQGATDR
# In short: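 Receptor source: human recombinant H2 in CHO-K1 cells, assayed in 50 mM phosphate pH 7.4. Competition against 0.1 nM [125I]aminopotentidine, 120 min, 25 °C; 3 μM tiotidine sets nonspecific binding, filter-bound counts give specific binding.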
# [4] = target: T4, human recombinant adrenergic α1D receptor (Homo sapiens, UniProt P25100); assay: Adrenergic α1D radioligand binding ([3H]Prozosin); details: compound at 1 μM
# T4 construct: expressed in transfected cells; host or cells: human embryonic kidney (HEK-293) cells
# T4 sequence (P25100 1-572): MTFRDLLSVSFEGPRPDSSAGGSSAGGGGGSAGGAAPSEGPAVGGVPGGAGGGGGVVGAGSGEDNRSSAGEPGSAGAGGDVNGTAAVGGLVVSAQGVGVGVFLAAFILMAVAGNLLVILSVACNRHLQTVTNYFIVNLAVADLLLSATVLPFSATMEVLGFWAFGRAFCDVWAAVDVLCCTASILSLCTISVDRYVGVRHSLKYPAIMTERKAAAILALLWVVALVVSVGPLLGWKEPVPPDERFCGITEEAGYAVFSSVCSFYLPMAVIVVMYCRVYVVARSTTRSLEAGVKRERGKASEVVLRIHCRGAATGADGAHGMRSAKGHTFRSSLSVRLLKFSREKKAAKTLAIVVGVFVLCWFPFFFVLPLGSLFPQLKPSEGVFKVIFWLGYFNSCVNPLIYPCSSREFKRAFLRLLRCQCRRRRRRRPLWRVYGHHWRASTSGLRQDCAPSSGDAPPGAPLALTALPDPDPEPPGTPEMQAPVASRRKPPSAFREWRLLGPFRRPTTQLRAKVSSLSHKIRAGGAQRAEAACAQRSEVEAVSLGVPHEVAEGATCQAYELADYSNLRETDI
# Procedure: Compounds of invention were incubated with 0.6 nM [^3H]Prozosin for 60 min. at 25° C. Non-specific binding was estimated in the presence of 10 μM phentolamine. Receptor proteins were filtered and washed, the filters were then counted to determine [^3H]Prozosin specifically bound. Compounds were screened at 1 μM or lower, using 1% DMSO as vehicle. Biochemical assay results are presented as the percent inhibition of specific binding in Table 9.
# [5] = target: human recombinant serotonin (5-Hydroxytryptamine) 5-HT7 receptor (Homo sapiens, UniProt P34969); assay: Serotonin 5-HT7 radioligand binding ([3H]LSD); details: for inhibition at 1 µM: read-out: Inhibition of ligand binding, Serotonin 5-HT7 (percent inhibition of specific binding)
# Sequence of human recombinant serotonin (5-Hydroxytryptamine) 5-HT7 receptor (P34969 whole entry): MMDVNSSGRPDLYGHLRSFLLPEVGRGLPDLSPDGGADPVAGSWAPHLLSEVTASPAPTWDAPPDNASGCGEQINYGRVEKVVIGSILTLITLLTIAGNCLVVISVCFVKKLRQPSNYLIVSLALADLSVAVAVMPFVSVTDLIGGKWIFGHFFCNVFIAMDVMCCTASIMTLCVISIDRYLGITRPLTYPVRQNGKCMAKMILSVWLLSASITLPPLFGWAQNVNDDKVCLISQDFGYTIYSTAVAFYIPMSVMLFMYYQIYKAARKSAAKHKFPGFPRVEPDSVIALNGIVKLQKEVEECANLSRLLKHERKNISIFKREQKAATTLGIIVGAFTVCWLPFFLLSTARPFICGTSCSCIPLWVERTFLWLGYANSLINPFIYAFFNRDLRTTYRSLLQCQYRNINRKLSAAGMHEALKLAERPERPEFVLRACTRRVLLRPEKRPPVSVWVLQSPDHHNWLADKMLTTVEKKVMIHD
# From the text: Receptor proteins were filtered and washed, the filters were then counted to determine [^3H]LSD specifically bound.
# [6] = target: T5, human recombinant serotonin (5-Hydroxytryptamine) 5-HT2A receptor (Homo sapiens, UniProt P28223); assay: Serotonin 5-HT2A radioligand binding ([3H]Ketanserin); details: for inhibition at 1 µM: read-out: Inhibition of ligand binding, Serotonin 5-HT2A (percent inhibition of specific binding), compound at 1 μM; for inhibition at 0.1 µM: read-out: Inhibition of ligand binding, Serotonin 5-HT2A (percent inhibition of specific binding), compound at 0.1 μM
# T5 construct: expressed in transfected cells; host or cells: Chinese hamster ovary (CHO-K1) cells
# T5 sequence (P28223 whole entry): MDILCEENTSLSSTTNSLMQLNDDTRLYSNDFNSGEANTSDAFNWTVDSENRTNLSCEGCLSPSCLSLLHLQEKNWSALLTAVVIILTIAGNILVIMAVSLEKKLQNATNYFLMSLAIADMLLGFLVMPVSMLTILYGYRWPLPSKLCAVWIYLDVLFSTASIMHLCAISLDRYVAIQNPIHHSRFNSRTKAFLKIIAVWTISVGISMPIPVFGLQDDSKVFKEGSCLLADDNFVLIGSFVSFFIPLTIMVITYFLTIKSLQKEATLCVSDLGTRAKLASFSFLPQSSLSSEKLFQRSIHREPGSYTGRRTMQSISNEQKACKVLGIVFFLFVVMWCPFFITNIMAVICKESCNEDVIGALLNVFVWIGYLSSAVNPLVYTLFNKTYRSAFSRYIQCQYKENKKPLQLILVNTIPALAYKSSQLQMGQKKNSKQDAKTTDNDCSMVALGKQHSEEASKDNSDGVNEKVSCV
# Procedure: Compounds of the invention were incubated with 0.5 nM [^3H]Ketanserin for 60 min. at 25° C. Non-specific binding was estimated in the presence of 1 μM Mianserin. Receptor proteins were filtered and washed, the filters were then counted to determine [^3H]Ketanserin specifically bound.
# [7] = target: human dopamine D2L receptor (Homo sapiens, UniProt P14416); assay: Dopamine D2L radioligand binding ([3H]Spiperone); details: compound at 1 μM
# Sequence of human dopamine D2L receptor (P14416 whole entry): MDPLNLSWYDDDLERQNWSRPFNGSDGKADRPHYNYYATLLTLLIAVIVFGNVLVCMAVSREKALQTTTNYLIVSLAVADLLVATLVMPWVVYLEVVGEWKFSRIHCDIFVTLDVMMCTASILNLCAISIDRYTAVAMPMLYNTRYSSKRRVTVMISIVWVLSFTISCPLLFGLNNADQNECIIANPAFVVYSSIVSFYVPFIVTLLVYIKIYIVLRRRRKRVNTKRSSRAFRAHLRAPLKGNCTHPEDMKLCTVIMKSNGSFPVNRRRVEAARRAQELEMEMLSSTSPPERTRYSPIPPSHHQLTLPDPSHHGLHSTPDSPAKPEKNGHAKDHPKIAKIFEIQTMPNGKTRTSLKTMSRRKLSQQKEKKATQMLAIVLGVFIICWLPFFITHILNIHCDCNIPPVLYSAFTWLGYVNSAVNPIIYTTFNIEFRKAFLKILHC
# From the text: Non-specific binding was estimated in the presence of […] Haloperidol. Receptor proteins were filtered and washed, the filters were then counted to determine [^3H]Spiperone specifically bound. […] Biochemical assay results are presented as the percent inhibition of specific binding in Table 9.
# [8] = percent inhibition of specific binding, read-out: Inhibition of ligand binding, Adrenergic α2B
# [9] = percent inhibition of specific binding, read-out: Inhibition of ligand binding, Adrenergic α1D
# [10] = percent inhibition of specific binding, 1 µM
# [11] = percent inhibition of specific binding, read-out: Inhibition of ligand binding, Dopamine D2L
# [12] = […] [3H]Rauwolscine, read-out: Inhibition of ligand binding, Adrenergic α2B (percent inhibition of specific binding)
# [13] = read-out: Inhibition of ligand binding, Adrenergic α1D (percent inhibition of specific binding)
Compound,inhibition at 1 µM ([1]; compound at 1 μM) [%],"inhibition at 1 µM [2, 8] [%]",inhibition at 1 µM [3] [%],"inhibition at 1 µM [4, 9] [%]",inhibition at 1 µM ([5]; compound at 1 μM) [%],inhibition at 1 µM [6] [%],inhibition at 0.1 µM [1] [%],"Inhibition of ligand binding, Adrenergic α1D [4, 10] [%]","Inhibition of ligand binding, Serotonin 5-HT7 (percent inhibition of specific binding) ([5]; compound at 1 μM, 1 µM) [%]",inhibition at 0.1 µM [6] [%],"Inhibition of ligand binding, Dopamine D2L [7, 10]","Inhibition of ligand binding, Serotonin 5-HT6 (percent inhibition of specific binding) ([1]; compound at 1 μM, 1 µM) [%]","Inhibition of ligand binding, Serotonin 5-HT7 (percent inhibition of specific binding) ([5]; compound at 0.1 μM, 0.1 µM)","Inhibition of ligand binding, Serotonin 5-HT2A (percent inhibition of specific binding) ([6]; compound at 0.1 μM, 0.1 µM) [%]","Inhibition of ligand binding, Serotonin 5-HT2A (percent inhibition of specific binding) ([6]; compound at 1 μM, 1 µM) [%]","inhibition at 1 µM [7, 11] [%]","inhibition at 1 µM [2, 12] [%]","inhibition at 1 µM [4, 13] [%]","inhibition at 1 µM ([7]; […] [3H]Spiperone, read-out: Inhibition of ligand binding, Dopamine D2L (percent inhibition of specific binding)) [%]"
"CCN1CCc2c(c3ccccc3n2CC(O)c2ccc(C)cc2)C1 (racemic) [Compound 44, racemic-2-(2-ethyl-1,2,3,4-tetrahydropyrido[4,3-b]indol-5-yl)-1-p-tolylethanol]",9,94,26,35,42,80,,,,,,,,,,,,,
"CCN1CCc2c(c3cc(C)ccc3n2CC(O)c2ccc(C)cc2)C1 (racemic) [Compound 51, racemic-2-(2-ethyl-1,2,3,4-tetrahydro-8-methylpyrido[4,3-b]indol-5-yl)-1-p-tolylethanol]",83,118,59,89,91,102,29,,,,,,,,,,,,
"Cc1ccc(C(O)Cn2c3c(c4ccccc42)CN(C)CC3)cc1 (racemic) [Compound 53, racemic-2-(1,2,3,4-tetrahydro-2-methylpyrido[4,3-b]indol-5-yl)-1-p-tolylethanol]",49,114,58,55,87,100,,,,,,,,,,,,,
"CC(=Cn1c2c(c3cc(Cl)ccc31)CN(C)CC2)c1ccc(Cl)cc1Cl (stereo in doubt) [Compound 111, (Z)-8-chloro-5-(2-(2,4-dichlorophenyl)prop-1-enyl)-2,3,4,5-tetrahydro-2-methyl-1H-pyrido[4,3-b]indole]",94,90,91,,,99,71,47,102,86,27% and 29%,,,,,,,,
"C/C(=C\n1c2c(c3cc(C)ccc31)CN(C)CC2)c1ccncc1 [Compound 88, (E)-2,3,4,5-tetrahydro-2,8-dimethyl-5-(2-(pyridin-4-yl)prop-1-enyl)-1H-pyrido[4,3-b]indole]",102,107,30,78,93,98,82,,,87,,103,75% and 97%,95,101,,,,
"C=C(Cn1c2c(c3cc(Cl)ccc31)CN(C)CC2)c1ccc(OC)c(F)c1 [Compound 140, 8-chloro-5-(2-(3-fluoro-4-methoxyphenyl)allyl)-2,3,4,5-tetrahydro-2-methyl-1H-pyrido[4,3-b]indole]",75,106,99,84,,98,,,,,,,,,,57,,,
"COc1ccc(C(C)(O)Cn2c3c(c4cc(C)ccc42)CN(C)CC3)cc1F (stereo not shown) [Compound 173, 1-(2,8-dimethyl-3,4-dihydro-1H-pyrido[4,3-b]indol-5(2H)-yl)-2-(3-fluoro-4-methoxyphenyl)propan-2-ol]",85,98,78,58,103,,,,,,,,,,,32,,,
"CN1CCc2c(c3cc(Cl)ccc3n2C2=C(c3cccnc3)CCCC2)C1 [Compound No. 166, 8-chloro-2-methyl-5-(2-(pyridin-3-yl)cyclohex-1-enyl)-2,3,4,5-tetrahydro-1H-pyrido[4,3-b]indole]",6,63,56,28,,46,,,,,,,,,,-2,,,
"CN1CCc2c(c3cc(Cl)ccc3n2C#Cc2ccc(F)cc2)C1 [Compound No. 475, 8-chloro-5-((4-fluorophenyl)ethynyl)-2-methyl-2,3,4,5-tetrahydro-1H-pyrido[4,3-b]indole]",99,,91,,,99,,,,,,,,,,,106,91,95
"Cc1ccc2c(c1)c1c(n2CC#Cc2ccccn2)CCN(C)C1 [Compound No. 500, 2,3,4,5-tetrahydro-2,8-dimethyl-5-(3-(pyridin-2-yl)prop-2-ynyl)-1H-pyrido[4,3-b]indole]",18,,30,,48,40,,,,,,,,,,,23,11,
"Cc1ccc2c(c1)c1c(n2/C=C/c2ccc(C)nc2)CCN(C)C1 [compound 95, 2,3,4,5-tetrahydro-2,8-dimethyl-5-((E)-2-(6-methylpyridin-3-yl)vinyl)-1H-pyrido[4,3-b]indole]",71,103,41,89,,91,,,,,,,,,,17,,,
